Data from ChEMBL document CHEMBL1128559, “Inhibition of the oncogene product p185erbB-2 in vitro and in vivo by geldanamycin and dihydrogeldanamycin derivatives” (J Med Chem, 1995).

system: SK-BR-3; assay: Inhibition of oncogene product p185 erbB-2 from human breast cancer cells(SK-BR-3 cells).

| Structure (SMILES) | IC50 [nM] |
| --- | --- |
| CO[C@H]1C[C@H](C)CC2=C(NC(C)C)C(=O)C=C(NC(=O)/C(C)=C/CC[C@H](OC)[C@@H](OC(N)=O)/C(C)=C/[C@H](C)[C@H]1O)C2=O | 470 |
| CO[C@H]1/C=C\C=C(/C)C(=O)Nc2cc3nc4ccccc4nc3c(c2O)C[C@@H](C)C[C@H](OC)[C@H](O)[C@@H](C)/C=C(\C)[C@@H]1OC(N)=O | > 3200 |
| C=CCNC1=C2C[C@@H](C)C[C@H](OC)[C@H](O)[C@@H](C)/C=C(\C)[C@H](OC(N)=O)[C@@H](OC)CC/C=C(\C)C(=O)NC(=CC1=O)C2=O | 51 |
| CO[C@H]1/C=C\C=C(/C)C(=O)NC2=CC(=O)C(NC3CN4CCC3CC4)=C(C[C@@H](C)C[C@H](OC)[C@H](O)[C@@H](C)/C=C(\C)[C@@H]1OC(N)=O)C2=O (stereo partly drawn) | 1370 |
| CO[C@H]1/C=C\C=C(/C)C(=O)NC2=CC(=O)C(NCc3ccccc3)=C(C[C@@H](C)C[C@H](OC)[C@H](O)[C@@H](C)/C=C(\C)[C@@H]1OC(N)=O)C2=O | 790 |
| CO[C@H]1C[C@H](C)CC2=C(N3CC(N)C3)C(=O)C=C(NC(=O)/C(C)=C/CC[C@H](OC)[C@@H](OC(N)=O)/C(C)=C/[C@H](C)[C@H]1O)C2=O | 66 |
| CO[C@H]1/C=C\C=C(/C)C(=O)Nc2cc3nc4ccccc4oc-3c(c2=O)C[C@@H](C)C[C@H](OC)[C@H](O)[C@@H](C)/C=C(\C)[C@@H]1OC(N)=O | 420 |
| CO[C@H]1/C=C\C=C(/C)C(=O)NC2=CC3=NC(/N=C(\N)N4CCOCC4)=NC3=C(C[C@@H](C)C[C@H](OC)[C@H](O)[C@@H](C)/C=C(\C)[C@@H]1OC(N)=O)C2=O | 2030 |
| CO[C@H]1C[C@H](C)CC2=C(N3CC(CO)C3)C(=O)C=C(NC(=O)/C(C)=C/CC[C@H](OC)[C@@H](OC(N)=O)/C(C)=C/[C@H](C)[C@H]1O)C2=O | 1300 |
| COC1=C2C[C@@H](C)C[C@H](OC)[C@H](O)[C@@H](C)/C=C(\C)[C@H](OC(N)=O)[C@@H](OC)/C=C\C=C(/C)C(=O)NC(=C(N3C=CC=CC=C3)C1=O)C2=O | 1500 |
| CO[C@H]1/C=C\C=C(/C)C(=O)NC2=CC(=O)C(NCCC(=O)O)=C(C[C@@H](C)C[C@H](OC)[C@H](O)[C@@H](C)/C=C(\C)[C@@H]1OC(N)=O)C2=O | 190 |
| COC1=C2C[C@@H](C)C[C@H](OC)[C@H](O)[C@@H](C)/C=C(\C)[C@H](OC(N)=O)[C@@H](OC)/C=C\C=C(/C)C(=O)N3CN(C(C)(C)C)CC(=C3C2=O)C1=O | > 3040 |
| COC1=C2C[C@@H](C)C[C@H](OC)[C@H](O)[C@@H](C)/C=C(\C)[C@H](OC(N)=O)[C@@H](OC)/C=C\C=C(/C)C(=O)NC(=C(Br)C1=O)C2=O | > 3130 |
| COC1c2cc(O)cc(c2O)NC(=O)/C(C)=C/C=C\[C@H](OC)[C@@H](OC(N)=O)/C(C)=C/[C@H](C)[C@@H](OC)[C@@H](OC)C[C@@H]1C (stereo partly drawn) | 520 |
| CO[C@H]1C[C@H](C)CC2=C3N=C(/N=C(\N)N4CCC4)N=C3C=C(NC(=O)/C(C)=C/CC[C@H](OC)[C@@H](OC(N)=O)/C(C)=C/[C@H](C)[C@H]1O)C2=O | 980 |
| CO[C@H]1/C=C\C=C(/C)C(=O)NC2=CC3=NC(/N=C(\N)N4CCC(C)CC4)=NC3=C(C[C@@H](C)C[C@H](OC)[C@H](O)[C@@H](C)/C=C(\C)[C@@H]1OC(N)=O)C2=O | 150 |
| COC1c2cc(O)cc(c2O)NC(=O)/C(C)=C/C=C\[C@H](OC)[C@@H](OC(N)=O)/C(C)=C/[C@H](C)[C@@H](O)[C@@H](OC)C[C@@H]1C (stereo partly drawn) | 1100 |
| COc1c(O)cc2c(O)c1C[C@@H](C)C[C@H](OC)[C@H](O)[C@@H](C)/C=C(\C)[C@H](OC(N)=O)[C@@H](OC)/C=C\C=C(/C)C(=O)N2 | 100 |
| CO[C@H]1/C=C\C=C(/C)C(=O)NC2=CC(=O)C(O)=C(C[C@@H](C)C[C@H](OC)[C@H](O)[C@@H](C)/C=C(\C)[C@@H]1OC(N)=O)C2=O | > 3700 |
| COC1=C2C[C@@H](C)C[C@H](OC)[C@H](O)[C@@H](C)/C=C(\C)[C@H](OC(N)=O)[C@@H](OC)/C=C\C=C(/C)C(=O)NC(=C(NC3CC3)C1=O)C2=O | > 3250 |
| COC1=C2C[C@@H](C)C[C@H](OC)[C@H](O)[C@@H](C)/C=C(\C)[C@H](OC(N)=O)[C@@H](OC)/C=C\C=C(/C)C(=O)NC(=C(/C=N/N3CCN(C)CC3)C1=O)C2=O | > 2900 |
| COC1=C2C[C@@H](C)C[C@H](OC)[C@H](O)[C@@H](C)/C=C(\C)[C@H](OC(N)=O)[C@@H](OC)CC/C=C(\C)C(=O)NC(=CC1=O)C2=O | 230 |
| CO[C@H]1C[C@H](C)CC2=C(NCCC(=O)O)C(=O)C=C(NC(=O)/C(C)=C/CC[C@H](OC)[C@@H](OC(N)=O)/C(C)=C/[C@H](C)[C@H]1O)C2=O | > 3200 |
| COC1=C2C[C@@H](C)C[C@H](OC)[C@H](O)[C@@H](C)/C=C(\C)[C@H](OC(N)=O)[C@@H](OC)/C=C\C=C(/C)C3=NC(=C(C1=O)C(NC(C)(C)C)O3)C2=O (stereo partly drawn) | > 3100 |

Other lines, results leading:

| IC50 [nM] | Structure (SMILES) |
| --- | --- |
| 220 | CO[C@H]1/C=C\C=C(/C)C(=O)NC2=CC(=O)C(Nc3nccs3)=C(C[C@@H](C)C[C@H](OC)[C@H](O)[C@@H](C)/C=C(\C)[C@@H]1OC(N)=O)C2=O |
| 970 | CO[C@H]1/C=C\C=C(/C)C(=O)NC2=CC(=O)C(NCC(O)CO)=C(C[C@@H](C)C[C@H](OC)[C@H](O)[C@@H](C)/C=C(\C)[C@@H]1OC(N)=O)C2=O (stereo partly drawn) |
| 80 | CO[C@H]1/C=C\C=C(/C)C(=O)NC2=CC(=O)C(NCCCN)=C(C[C@@H](C)C[C@H](OC)[C@H](O)[C@@H](C)/C=C(\C)[C@@H]1OC(N)=O)C2=O |
| 100 | CO[C@H]1/C=C\C=C(/C)C(=O)NC2=CC(=O)C(NCCO)=C(C[C@@H](C)C[C@H](OC)[C@H](O)[C@@H](C)/C=C(\C)[C@@H]1OC(N)=O)C2=O |
| 130 | CO[C@H]1/C=C\C=C(/C)C(=O)NC2=CC(=O)C(NCCCO)=C(C[C@@H](C)C[C@H](OC)[C@H](O)[C@@H](C)/C=C(\C)[C@@H]1OC(N)=O)C2=O |
| 140 | CO[C@H]1C[C@H](C)CC2=C(NCCSC)C(=O)C=C(NC(=O)/C(C)=C/CC[C@H](OC)[C@@H](OC(N)=O)/C(C)=C/[C@H](C)[C@H]1O)C2=O |
| 180 | CO[C@H]1/C=C\C=C(/C)C(=O)NC2=CC(=O)C(N[C@@H](C)CO)=C(C[C@@H](C)C[C@H](OC)[C@H](O)[C@@H](C)/C=C(\C)[C@@H]1OC(N)=O)C2=O |
| 1990 | CO[C@H]1/C=C\C=C(/C)C(=O)NC2=CC(=O)C(NCC(N)=O)=C(C[C@@H](C)C[C@H](OC)[C@H](O)[C@@H](C)/C=C(\C)[C@@H]1OC(N)=O)C2=O |
| > 3100 | CO[C@H]1/C=C\C=C(/C)C(=O)NC2=CC(=O)C(NCC3CCNCC3)=C(C[C@@H](C)C[C@H](OC)[C@H](O)[C@@H](C)/C=C(\C)[C@@H]1OC(N)=O)C2=O |
| 43 | CO[C@H]1/C=C\C=C(/C)C(=O)NC2=CC(=O)C(NC3CC3)=C(C[C@@H](C)C[C@H](OC)[C@H](O)[C@@H](C)/C=C(\C)[C@@H]1OC(N)=O)C2=O |
| 26 | C#CCNC1=C2C[C@@H](C)C[C@H](OC)[C@H](O)[C@@H](C)/C=C(\C)[C@H](OC(N)=O)[C@@H](OC)/C=C\C=C(/C)C(=O)NC(=CC1=O)C2=O |
| > 3260 | CO[C@H]1/C=C\C=C(/C)C(=O)NC2=CC(=O)C(NC3CCCC3)=C(C[C@@H](C)C[C@H](OC)[C@H](O)[C@@H](C)/C=C(\C)[C@@H]1OC(N)=O)C2=O |
| 98 | CO[C@H]1/C=C\C=C(/C)C(=O)NC2=CC(=O)C(NCCSC)=C(C[C@@H](C)C[C@H](OC)[C@H](O)[C@@H](C)/C=C(\C)[C@@H]1OC(N)=O)C2=O |
| 1300 | CO[C@H]1/C=C\C=C(/C)C(=O)NC2=CC(=O)C(N3CC(CO)C3)=C(C[C@@H](C)C[C@H](OC)[C@H](O)[C@@H](C)/C=C(\C)[C@@H]1OC(N)=O)C2=O |
| 260 | CO[C@H]1/C=C\C=C(/C)C(=O)NC2=CC3=NCCCNC3=C(C[C@@H](C)C[C@H](OC)[C@H](O)[C@@H](C)/C=C(\C)[C@@H]1OC(N)=O)C2=O |
| 320 | CO[C@H]1/C=C\C=C(/C)C(=O)NC2=CC(=O)C(NCCc3ccco3)=C(C[C@@H](C)C[C@H](OC)[C@H](O)[C@@H](C)/C=C(\C)[C@@H]1OC(N)=O)C2=O |
| 260 | CO[C@H]1/C=C\C=C(/C)C(=O)NC2=CC(=O)C(NC[C@@H](C)O)=C(C[C@@H](C)C[C@H](OC)[C@H](O)[C@@H](C)/C=C(\C)[C@@H]1OC(N)=O)C2=O |
| 710 | COC(CNC1=C2C[C@@H](C)C[C@H](OC)[C@H](O)[C@@H](C)/C=C(\C)[C@H](OC(N)=O)[C@@H](OC)/C=C\C=C(/C)C(=O)NC(=CC1=O)C2=O)OC |
| 66 | COCCNC1=C2C[C@@H](C)C[C@H](OC)[C@H](O)[C@@H](C)/C=C(\C)[C@H](OC(N)=O)[C@@H](OC)/C=C\C=C(/C)C(=O)NC(=CC1=O)C2=O |
| 110 | CO[C@H]1/C=C\C=C(/C)C(=O)NC2=CC(=O)C(NCCCI)=C(C[C@@H](C)C[C@H](OC)[C@H](O)[C@@H](C)/C=C(\C)[C@@H]1OC(N)=O)C2=O |
| 920 | CO[C@H]1/C=C\C=C(/C)C(=O)NC2=CC(=O)C(NCCCn3ccnc3)=C(C[C@@H](C)C[C@H](OC)[C@H](O)[C@@H](C)/C=C(\C)[C@@H]1OC(N)=O)C2=O |
| 89 | CNC1=C2C[C@@H](C)C[C@H](OC)[C@H](O)[C@@H](C)/C=C(\C)[C@H](OC(N)=O)[C@@H](OC)/C=C\C=C(/C)C(=O)NC(=CC1=O)C2=O |
| 170 | CO[C@H]1/C=C\C=C(/C)C(=O)NC2=CC(=O)C(NCCS)=C(C[C@@H](C)C[C@H](OC)[C@H](O)[C@@H](C)/C=C(\C)[C@@H]1OC(N)=O)C2=O |
| 140 | CO[C@H]1/C=C\C=C(/C)C(=O)NC2=CC(=O)C(NCCCN(C)C)=C(C[C@@H](C)C[C@H](OC)[C@H](O)[C@@H](C)/C=C(\C)[C@@H]1OC(N)=O)C2=O |
| 170 | CO[C@H]1/C=C\C=C(/C)C(=O)NC2=CC(=O)C(N=C(N(C)C)N(C)C)=C(C[C@@H](C)C[C@H](OC)[C@H](O)[C@@H](C)/C=C(\C)[C@@H]1OC(N)=O)C2=O |
| 1270 | CO[C@H]1/C=C\C=C(/C)C(=O)NC2=CC(=O)C(NCCNC(C)=O)=C(C[C@@H](C)C[C@H](OC)[C@H](O)[C@@H](C)/C=C(\C)[C@@H]1OC(N)=O)C2=O |
| 50 | CO[C@H]1/C=C\C=C(/C)C(=O)NC2=CC(=O)C(N3CC(O)C3)=C(C[C@@H](C)C[C@H](OC)[C@H](O)[C@@H](C)/C=C(\C)[C@@H]1OC(N)=O)C2=O |
| 200 | CO[C@H]1/C=C\C=C(/C)C(=O)NC2=CC(=O)C(NC(C)(C)C)=C(C[C@@H](C)C[C@H](OC)[C@H](O)[C@@H](C)/C=C(\C)[C@@H]1OC(N)=O)C2=O |
| 330 | CO[C@H]1/C=C\C=C(/C)C(=O)NC2=CC(=O)C(N[C@H](C)CO)=C(C[C@@H](C)C[C@H](OC)[C@H](O)[C@@H](C)/C=C(\C)[C@@H]1OC(N)=O)C2=O |
